Consider two compounds from patent US20220151921A1, “MONOCYTE-SELECTIVE DRUG DELIVERY SYSTEM USING SINGLE-WALLED CARBON NANOTUBES TO INDUCE EFFEROCYTOSIS” (The Board of Trustees of the Leland Stanford Junior …, priority 2019, published 2022).

By pIC50 is commonly meant the IC50 on a negative log10 scale, so that one unit is a factor of ten.

Series [1] addresses SHP-1 (Homo sapiens, UniProt P29350). To be noted: cited from earlier work.
Series [2] can be described thus: TPI release assay. The class given is physicochemical. To be noted: PBS pH 5.5 and 6.5, carbonate buffer pH 9, through day 7. On the procedure:
TPI release Assay. We conducted assays to evaluate TPI release from SWNTs in carbonate buffer (pH 9) and PBS buffer (pH 6.5 and 5.5). SWNT-TPI (200 μL, 16.5 TPI molecules/SWNT on average) was added to MINI Dialysis Devices (MWCO: 20K) and the volume of release medium was 3 mL. At fixed timepoints from 1 day to 7 days, 2 μL of the outlet medium was removed to test the rate of TPI release. The cumulative drug release (CDR) percentage was calculated by the following equation: CDR (%)=Wreleased/Wloaded×100% Here, CDR represents the cumulative drug release percentage, Wreleased represents the mass of released TPI in the release media, Wloaded represents the total mass of TPI. TPI release in serum (20% Fetal Bovine Serum (FBS) in Phosphate-buffered saline (PBS)): the timepoints, sample volume, and calculation methods were identical to the above.

Series [3] deals with RAW 264.7 cells. Briefly: Cell proliferation assay (modified MTT). The class given is cell-based, murine. On the procedure:
Cell Proliferation Assay. A modified MTT (3-[4,5-dimethyl-thiazol-2-yl]-2,5-diphenyltetrazolium bromide) assay was performed to analyze macrophage proliferation. RAW 264.7 cells were plated at 25,000 cells/well in a 96-well plate grown overnight at 37°C., and serum-starved for the next 24 hrs. Cells were stimulated with 10% FBS for 24 hrs with SWNTs (4 nM), SWNT-TPI (TPI: 25 nM and 50 nM), or TPI (25 nM), and then incubated with 10 μL of MTT AB solution (Millipore, Billerica) for 2 hr. 100 μL of acidic isopropanol (0.04N HCl) was added to each well and the absorbance was measured at 570 nm (reference wavelength 650 nm) on an ELISA plate reader a SpectraMax 190 Microplate Reader (Molecular Devices). Statistical analysis Statistical differences were determined by one-way ANOVA, and results were expressed as means±SE. p-value<0.05 and p-value<0.01 were considered to indicate statistical significance. Statistical analyses were performed using GraphPad Prism 7 (GraphPad Inc.).

Structures are written as SMILES. pIC50: −log10 of the molar value.

SHP-1, sequence (P29350 whole entry): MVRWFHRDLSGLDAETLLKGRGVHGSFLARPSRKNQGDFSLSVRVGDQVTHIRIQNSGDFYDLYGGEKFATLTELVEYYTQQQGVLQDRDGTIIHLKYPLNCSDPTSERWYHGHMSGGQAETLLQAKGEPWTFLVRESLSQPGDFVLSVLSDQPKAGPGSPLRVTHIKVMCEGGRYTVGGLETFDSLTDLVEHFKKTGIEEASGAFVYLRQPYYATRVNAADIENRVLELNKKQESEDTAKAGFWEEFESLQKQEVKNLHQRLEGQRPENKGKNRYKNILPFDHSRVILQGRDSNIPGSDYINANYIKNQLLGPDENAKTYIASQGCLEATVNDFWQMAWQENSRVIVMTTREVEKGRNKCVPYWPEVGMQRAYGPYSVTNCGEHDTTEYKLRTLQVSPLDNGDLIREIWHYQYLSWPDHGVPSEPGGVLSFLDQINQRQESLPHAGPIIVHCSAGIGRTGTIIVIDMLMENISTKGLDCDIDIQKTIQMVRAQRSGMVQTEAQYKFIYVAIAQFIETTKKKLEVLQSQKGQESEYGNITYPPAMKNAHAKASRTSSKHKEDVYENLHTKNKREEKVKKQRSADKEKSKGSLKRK

`O=S(=O)(O)c1ccc2cc(N=Nc3cc(S(=O)(=O)O)c4cccnc4c3O)ccc2c1` [NSC87877]: the pIC50 in series [1] is 6.45.
Turning to `O=C1C=CC(=O)C(c2cc(Cl)ccc2Cl)=C1` [TPI, 2-(2,5-dichlorophenyl)-2,5-cyclohexadiene-1,4-dione], the “TPI release from SWNTs in saline buffers” value in series [2] is listed as “accelerated by progressively more acidic conditions”. In series [1], the pIC50 is 7.40 and the “selectivity for SHP-1 over SHP-2” value was “selective toward SHP-1”. Further, the “effectiveness as SHP-1 inhibitor relative to sodium stibogluconate” value in series [1] (versus sodium stibogluconate) is “over two orders of magnitude”. The RAW cell proliferation entry in series [3] was “no significant effect”.
